Data taken from publication PMC5713249, “PeaTAR1B: Characterization of a Second Type 1 Tyramine Receptor of the American Cockroach, Periplaneta americana” (International Journal of Molecular Sciences, 2017).

Assays:
PeaTAR1B (PeaTAR1B-HA) [1] = target: T1, PeaTAR1B (PeaTAR1B-HA) (Periplaneta americana, UniProt A0A239QQ38); experiment: attenuation of NKH 477-stimulated cAMP, CNG channel / Fluo-4 Ca2+ fluorescence in HEK […] flpTM cells; assay type: cell-based
T1 construct: stably expressed in HEK 293 flpTM cells
T1 sequence (A0A239QQ38 1-481): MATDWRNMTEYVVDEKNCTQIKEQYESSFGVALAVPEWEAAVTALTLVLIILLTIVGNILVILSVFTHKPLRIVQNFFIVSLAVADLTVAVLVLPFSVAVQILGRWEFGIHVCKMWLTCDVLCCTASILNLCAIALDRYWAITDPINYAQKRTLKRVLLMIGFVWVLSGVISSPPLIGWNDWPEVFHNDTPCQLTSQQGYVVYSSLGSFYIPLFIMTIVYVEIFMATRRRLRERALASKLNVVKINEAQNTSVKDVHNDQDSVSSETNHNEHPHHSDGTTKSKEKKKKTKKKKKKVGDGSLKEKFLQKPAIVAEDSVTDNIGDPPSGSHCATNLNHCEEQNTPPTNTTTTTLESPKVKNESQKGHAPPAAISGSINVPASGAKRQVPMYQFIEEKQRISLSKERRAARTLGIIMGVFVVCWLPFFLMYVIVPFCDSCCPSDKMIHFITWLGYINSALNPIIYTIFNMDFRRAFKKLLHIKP

PeaTAR1B (PeaTAR1B-HA) [2] = target: T1, PeaTAR1B (PeaTAR1B-HA); experiment: block of tyramine-induced attenuation of NKH 477-stimulated cAMP, CNG channel / Fluo-4 fluorescence in HEK […] flpTM cells; assay type: cell-based

Row | SMILES | EC50 (PeaTAR1B (PeaTAR1B-HA) [1]) | IC50 (PeaTAR1B (PeaTAR1B-HA) [2])
1 | NCCc1ccc(O)cc1 [tyramine] | ~6.3 nM | –
2 | COC(=O)[C@@H]1[C@H]2C[C@H]3c4[nH]c5ccccc5c4CCN3C[C@@H]2CC[C@@H]1O [yohimbine] | – | 740 nM
